# In patent publication US20040248139A1, “Eit-6, a polypeptide encoded by an estrogen regulated gene” (priority 2001, published 2004):
# What was measured:
# [1] = tested on: prolyl hydroxylase enzymes; conditions: literature, compared with P2,5D where stated; cited from earlier work
# [2] = tested on: EIT-6 mRNA in BT-474 cells; experiment: Northern blot of EIT-6 mRNA, BT-474 cells; type: cell-based, human
# Method: All the cell lines were obtained from the ATCC.
# To determine if the induction of EIT-6 by estrogen is estrogen receptor-mediated, the effect of estrogen antagonists (4-hydroxy-tamoxifen and ICI 182,780) on EIT-6 mRNA levels was determined. BT-474 cells were cultured with […] (1 μM) or 4-hydroxy-tamoxifen (10 μM) for 6 hours prior to estrogen (10 nM) treatment for an additional 24 hours. […] There are multiple mechanisms by which estrogen can regulate the expression of EIT-6, e.g., (1) directly by transcriptional regulation, (2) directly by influencing mRNA stability, or (3) indirectly through other transcription factors/signaling pathways. […] To further investigate if EIT-6 is a direct or indirect target of estrogen receptors, EIT-6 mRNA levels were measured following estrogen treatment BT-474 cells in the presence of a protein synthesis inhibitor (cycloheximide) (FIG. 2B). The cells were treated with cycloheximide (10 μg/ml) for 16 hours in the presence or absence of estrogen.
# [3] = tested on: ZR75-1 breast cancer cells; experiment: SAGE (serial analysis of gene expression) after estrogen or tamoxifen treatment; type: cell-based, human; conditions: 10 nM estradiol, 16 h
# Text: (§1) In order to identify genes involved in the response of breast cancer cells to estrogen and tamoxifen, SAGE libraries were generated from an estrogen- dependent human breast cancer cell line (ZR75-1; obtained from the American type Culture Collection (ATTC), Manassas, VA) prior to and following estrogen or tamoxifen treatment. SAGE facilitated the determination of the absolute abundance of thousands of different mRNAs simultaneously in a comprehensive and unbiased way and to detect even slight differences in expression levels between samples [Velculescu et al. (1995) Science 270: 484-487; Polyak et al. (1997) Nature 389:300-305; Lal et al. (1999) Cancer Res. 59:5403-5607; Velculescu et al. (1999) Nature Genetics 23:387-388]. ZR75-1 cells cultured in the absence of steroid hormones (i.e., in phenol red-free culture medium containing charcoal-treated fetal bovine serum (FBS) (5%)) for seven days were split into three aliquots which were then cultured in fresh steroid-free medium containing no additive, 10 nM estradiol, or 10 μM 4-hydroxy-tamoxifen. Cells were harvested from the cultures after sixteen hours and response to the hormone treatment was confirmed by FACS analysis of cell cycle progression and by Northern blot analysis to test for the expression of known estrogen target genes.
# SAGE libraries from untreated, estrogen-treated and tamoxifen-treated ZR75-1 cells were generated using a modified micro-SAGE protocol [Porter et al. (2001) Cancer Res. 61: 5697-5702]. From the three SAGE libraries 140,638 tags were obtained, approximately 45,000 from each library. Hierarchical clustering was applied to data using the Auster program developed by Eisen et al. [(1998) Proc. Natl. Acad. Sci. USA. 95: 14863-14868]. Data was log-transformed and filtered for at least 1 observations abs Val 5 and Maxval-Minval >5. Using these settings 2,818 genes (out of 16,808 total) were included in the analysis that led to the identification of several estrogen- and/or tamoxifen-induced transcripts. […] Linking the UniGene database to the SAGE data identified the cDNAs corresponding to the SAGE tags in most of the cases (Table 1). Genes were named according to their relative abundance in the three SAGE libraries: EIT (Estrogen Induced Tag)-induced by estrogen; TIT (Tamoxifen Induced Tag)-induced by tamoxifen; and DET (Differently Expressed Tag)-differently expressed following estrogen or tamoxifen treatment.
# [4] = tested on: ZR75-1 cells; experiment: FACS analysis of cell cycle progression; type: cell-based, human; conditions: steroid-deprived ZR75-1 cells; 10 nM estradiol or 10 μM 4-hydroxy-tamoxifen, 16 h
# Text: as §1
# [5] = tested on: EIT-6 mRNA in ZR75-1 cells; experiment: Northern blot of EIT-6 mRNA, ZR75-1 cells; type: cell-based, human
# Text: To confirm the result of the SAGE experiment, probes corresponding to some of the cDNA clones were generated and the induction of the relevant genes was confirmed by Northern blot analysis (FIG. 1A) performed as previously described [Polyak et al. (1997)]. Of the twenty estrogen- or tamoxifen-induced genes (Table 1), only one (EIT-10;cathepsin D) had previously been implicated as a target of ER-transcriptional activation and three had not previously been described at all. In most cases the sequences of the relevant genes provided important clues as to their potential functions (Table 1). Several of the genes are predicted to be involved in the regulation of cell proliferation and/or survival. […]
# [6] = tested on: T47D ER+ breast cancer cells; experiment: Colony assay, T47D cells; type: cell-based, human; conditions: control pCEP4 and EIT-6 transfected cells, charcoal/dextran treated FBS, estrogen 10 nM
# Method: In order to test whether EIT-6 expresssion influences cell proliferation and/or survival, colony assays were performed. […] T47D ER+breast cancer cells were transfected with a control construct (pCEP4) or the pCEP4-EIT6 construct. Stable transfectants were selected by culturing the cells in the presence of hygromycin for two weeks after which colonies were visualized by crystal violet staining. […] The number of colonies per cm^2 was determined by spot-densitometry-assisted counting using a MultiImage Lightbox (Alfa Innotech, San Leandro, Calif.). Two flasks per experimental group and two independent areas in each flask were analyzed.
# To test if expression of EIT-6 can confer estrogen independent growth, ER+and estrogen dependent T47D breast cancer cells were transfected with control pCEP4 or pCEP4-EIT6 constructs. Stable transfectants were selected by culturing the cells in phenol red-free medium supplemented with charcoal/dextran treated (and thus steroid hormone depleted) FBS (5%) and hygromycin. Half the flasks contained estrogen (10 nM). After two weeks of dry selection, colonies were visualized by crystal violet staining and counted as described above.
# [7] = tested on: EIT-6 promoter region; conditions: ~5.5 kb EIT-6 promoter construct co-transfected with estrogen receptor α
# Method: To further characterize the mechanism by which the estrogen receptor induces EIT-6, a fragment of the proximal EIT-6 promoter was tested for its ability to confer estrogen responsiveness on a luciferase reporter gene. The luciferase construct was generated by subcloning a BAC (bacterial artificial chromosome)-derived fragment of EIT-6 promoter region (approximately 5.5 kb in length) into pBR-pl-luc [Polyak et al. (1997)]. The cells were transfected using FuGene 6 (Roche, Basel, Switzerland) and treated with estrogen the day after transfection. On the day following estrogen treatment luciferase activity was determined using a luciferase assay system (Promega, Madison, Wis.). […] Luciferase and β-galactosidase activity was measured following transient co-transfection of these constructs with the estrogen receptor α-encoding construct (referred to above) and a vector containing a β-galactosidase-encoding cDNA sequence under control of a constitutive (CMV) promoter into HepG2 cells as described above and the values of luciferase activity were normalized for transfection efficiency by calculating ratios of luciferase activity to β-galactosidase activity which was measured using the Aurora GAL-XE reporter gene assay (ICN, Costa Mesa, Calif.). “Fold induction” was calculated according to the following formula:
# [8] = tested on: putative estrogen responsive elements (ERE) in HepG2 cells; experiment: Luciferase reporter assay, ERE concatamer constructs with estrogen receptor α in HepG2 cells
# Method: The cells were transfected using FuGene 6 (Roche, Basel, Switzerland) and treated with estrogen the day after transfection. On the day following estrogen treatment luciferase activity was determined using a luciferase assay system (Promega, Madison, Wis.). […] To determine whether these putative EREs could confer estrogen responsiveness, various constructs containing concatemers of each of these elements (in a variety of combinations) up-stream of a luciferase gene were generated (FIG. 2D). These concatamer constructs were generated by subcloning concatamers of PCR-derived fragments (of the EIT-6 promoter region) containing the putative ERE's into pBR-pl-TATA-luc [Polyak et al. (1997) Nature 389:300-305]. Luciferase and β-galactosidase activity was measured following transient co-transfection of these constructs with the estrogen receptor α-encoding construct (referred to above) and a vector containing a β-galactosidase-encoding cDNA sequence under control of a constitutive (CMV) promoter into HepG2 cells as described above and the values of luciferase activity were normalized for transfection efficiency by calculating ratios of luciferase activity to β-galactosidase activity which was measured using the Aurora GAL-XE reporter gene assay (ICN, Costa Mesa, Calif.). “Fold induction” was calculated according to the following formula:
# Fold induction=(luciferase activity in estrogen treated cells÷βgalactosidase activity in estrogen treated cells)÷(luciferase activity in control cells÷βgalactosidase activity in control cells).
# [9] = BT-474, 16 h, cycloheximide 10 μg/ml
smiles,measurement,setting,value
C[C@H](NC(=O)C(=O)O)C(=O)O [N-oxalyl-2S-alanine],inhibition of prolyl hydroxylase,[1],Inhibitory
C[C@@H](NC(=O)C(=O)O)C(=O)O [N-oxalyl-2R-alanine],inhibition of prolyl hydroxylase,[1],not
O=C(O)CNC(=O)C(=O)O [N-oxalylglycine],inhibition of prolyl hydroxylase,[1],Inhibitory
C[C@@H]1C[C@@H]([C@H](O)CC2CC(=O)NC(=O)C2)C(=O)[C@@H](C)C1 [cycloheximide],"EIT-6 mRNA levels, separate treatment",[2]; [9],modestly increased
"C[C@]12CC[C@@H]3c4ccc(O)cc4CC[C@H]3[C@@H]1CC[C@@H]2O [estrogen, estradiol]","SAGE tags, E (estrogen-treated)","[3]; gene DET-1, untreated C = 4",15
same,"SAGE tags, E (estrogen-treated)","[3]; gene DET-2, untreated C = 3",13
same,"SAGE tags, E (estrogen-treated)","[3]; gene DET-13, untreated C = 7",1
same,"SAGE tags, E (estrogen-treated)","[3]; gene DET-14, untreated C = 4",1
same,"SAGE tags, E (estrogen-treated)","[3]; gene DET-15 (USF2), untreated C = 11",1
same,"SAGE tags, E (estrogen-treated)","[3]; gene DET-16, untreated C = 7",0
same,"SAGE tags, E (estrogen-treated)","[3]; gene DET-17 (SULT 1A), untreated C = 0",1
same,"SAGE tags, E (estrogen-treated)","[3]; gene EIT-1, untreated C = 1",14
same,"SAGE tags, E (estrogen-treated)","[3]; gene EIT-2 (TIM17B), untreated C = 1",14
same,"SAGE tags, E (estrogen-treated)","[3]; gene EIT-3, untreated C = 2",19
same,"SAGE tags, E (estrogen-treated)","[3]; gene EIT-4, untreated C = 2",18
same,"SAGE tags, E (estrogen-treated)","[3]; gene EIT-5, untreated C = 5",27
same,"SAGE tags, E (estrogen-treated)","[3]; gene EIT-6, untreated C = 5",26
same,"SAGE tags, E (estrogen-treated)","[3]; gene EIT-10 (Cathepsin D), untreated C = 112",451
same,"SAGE tags, E (estrogen-treated)","[3]; gene TIT-1, untreated C = 0",4
same,"SAGE tags, E (estrogen-treated)","[3]; gene TIT-2, untreated C = 0",3
same,"SAGE tags, E (estrogen-treated)","[3]; gene TIT-3, untreated C = 8",28
same,"SAGE tags, E (estrogen-treated)","[3]; gene TIT-4, untreated C = 7",27
same,"SAGE tags, E (estrogen-treated)","[3]; gene TIT-5, untreated C = 9",19
same,S-phase entry,[4],stimulated rapid S-phase entry
same,induction of EIT-6 mRNA,[5],~5 fold
same,"EIT-6 mRNA levels, separate treatment",[2]; [9],modestly increased
same,"EIT-6 mRNA levels, estrogen in the presence of cycloheximide","[2]; BT-474, cycloheximide 10 μg/ml, 16 h",much stronger induction
same,induction of EIT-6 mRNA,"[2]; BT-474 cells, Northern blot",~10 fold
same,colony numbers on addition of estrogen,[6],increased colony numbers
same,luciferase activity,[7],modest but reproducible induction
same,fold induction of luciferase by estrogen,"[8]; E4 construct (3 copies of the E4 ERE), HepG2, normalized to β-galactosidase",4-5 fold
same,fold induction of luciferase by estrogen,"[8]; VIT construct (two copies of vitellogenin consensus ERE), HepG2",10-11 fold
same,estrogen responsiveness of luciferase constructs,"[8]; most of the putative ERE combinations, HepG2",relatively weak
"C[C@]12CC[C@@H]3c4ccc(O)cc4C[C@@H](CCCCCCCCC[S+]([O-])CCCC(F)(F)C(F)(F)F)[C@H]3[C@@H]1CC[C@@H]2O (stereo partly shown) [ICI 182,780]",abolition of estrogen induction of EIT-6 mRNA,"[2]; BT-474, antagonist (ICI 1 μM or 4-hydroxy-tamoxifen 10 μM) 6 h before estrogen 10 nM for 24 h",completely
